In patent publication EP4763837A1, “PHOTOCHROMIC COMPOUND, CURABLE COMPOSITION, OPTICAL ARTICLE, LENS, AND EYEGLASSES” (TOKUYAMA CORPORATION, priority 2023, dated 2025):
Several values for one entry are separate records, joined by “and”; a condition that tells them apart may be missing. Equal entries are not always repeated.

How the values were obtained:
Assay type in all cases: physicochemical
[1] = Photochromic property of photochromic cured product made by kneading method
Description: (§1) The resulting photochromic laminates were evaluated by the below-mentioned methods. • (1) Photochromic property • [1] Maximum absorption wavelength (λmax): This is the maximum absorption wavelength after color development determined by a spectrophotometer manufactured by Otsuka Electronics Co., Ltd. (instantaneous multichannel photo detector MCPD3000) and was used as an index of a color tone upon color development. • [2] Color developing density at 23°C (A23): This is a difference between an absorbance {ε(240)} after irradiation with light at 23°C for 240 seconds and an absorbance ε(0) when not irradiated with light at the maximum absorption wavelength and was used as an index of a color developing density. The higher this value is, the better a photochromic property is. • [3] Color fading half-life at 23°C [τ1/2 (sec).)]: This is a period of time taken by an absorbance at the maximum absorption wavelength of a sample to decrease to 1/2 of {ε(240)-ε(0)} when irradiation is stopped after irradiation with light at 23°C for 240 seconds, and was used as an index of a color fading rate. The shorter this period of time is, the faster the color fading rate is. • [4] Residual ratio (A96/A0 x 100): The resulting photochromic plastic lens was subjected to accelerated degradation for 96 hours using a xenon weather meter X25 manufactured by Suga Test Instruments Co., Ltd. Color developing densities were then evaluated before and after a test, and a color developing density before the test (A0) and a color developing density after the test (A96) were measured. A ratio (A96/A0) was determined as a residual ratio and was used as an index of color development durability. The higher the residual ratio is, the more durable the color development is.
First, the photochromic compound obtained in Example 1, an additive, and a polymerizable compound were mixed to obtain a curable composition. The polymerizable compound was a combination of the following polymerizable monomers: • · 1,3-Bis(isocyanatomethyl)cyclohexane: 36.7 parts by mass • · Pentaerythritol tetrakis(3-mercaptopropionate): 39.4 parts by mass • · Polyoxyethylene polyoxypropylene lauryl ether (WONDERSURF 140 manufactured by AOKI OIL INDUSTRIAL Co., Ltd.): 17.4 parts by mass • · 1-Decanethiol: 2.8 parts by mass • · RX-1 prepared by the method described in Patent Document 14: 3.8 parts by mass
Note that, in the curable composition, the photochromic compound was added in an amount of 0.106 mmol taking a total amount of the polymerizable monomers as 100 g.
The following additives were used: • · Dimethyltin dichloride: 0.05 parts by mass • · Irganox 245: 0.1 parts by mass • · 2-Ethylhexyl […]: 0.6 parts by mass
After the thus-prepared curable composition was thoroughly defoamed, it was poured into a glass mold with a gap of 1 mm and polymerized by casting polymerization. […] After the polymerization, the resulting cured product was removed from the glass mold to obtain a photochromic cured product with a thickness of 1 mm. The resulting photochromic cured product was evaluated in the same manner as for Example 23.
Photochromic cured products were produced using the photochromic compounds shown in Table 4 in the same manner as in Example 50.

[2] = Photochromic property of photochromic laminate made by coating method; settings: for Residual ratio / Color developing density at 23°C: laminate by coating method; for Residual ratio: A96/A0 x 100 after 96 hours accelerated degradation, xenon weather meter X25; for Color developing density at 23°C: absorbance difference after 240 seconds irradiation at the maximum absorption wavelength of the same line
From the text: First, the photochromic compound obtained in Example 1, a photoinitiator, and a polymerizable compound were mixed to obtain a curable composition.
The polymerizable compound was a combination of the following radical polymerizable monomers:
Polyethylene glycol dimethacrylate (average molecular weight: 736): 42 parts by mass • Polyethylene glycol dimethacrylate (average molecular weight: 536): 12 parts by mass • Trimethylolpropane methacrylate: 38 parts by mass γ-Methacryloyloxypropyltrimethoxysilane: 2 parts by mass Glycidyl methacrylate: 1 part by mass.
Note that, in the curable composition, the photochromic compound was added in an amount of 0.25 mmol taking a total amount of the radical polymerizable monomers as 100 g.
Phenylbis(2,4,6-trimethylbenzoyl)phosphine oxide (photoinitiator: Omnirad 819): 0.3 parts by mass Ethylene bis(oxyethylene) bis[3-(5-tert-butyl-4-hydroxy-m-tolyl) propionate] (stabilizer, Irganox 245): 1 part by mass Bis(1,2,2,6,6-pentamethyl-4-piperidyl)sebacate: 3 parts by mass Leveling agent (L-7001) manufactured by DuPont Toray Specialty Materials K.K.: 0.1 parts by mass.
Using this curable composition, a photochromic laminate was obtained by a lamination method including polymerization as follows.
First, a thiourethane plastic lens with a center thickness of 2 mm and a refractive index of 1.60 was prepared as an optical substrate. Note that, the thiourethane plastic lens had been alkaline-etched in a 10% sodium hydroxide aqueous solution at 50°C for 5 minutes in advance, and then thoroughly washed with distilled water.
A spin coater (1H-DX2, manufactured by MIKASA CO., LTD) was used to coat a surface of the above-mentioned plastic lens with a moisture-curing primer (product name: TR-SC-P, manufactured by Tokuyama Corporation) at a rotation speed of 70 rpm for 15 seconds, followed by 1000 rpm for 10 seconds. Then, about 2 g of the photochromic curable composition obtained above was spin-coated at a rotation speed of 60 rpm for 40 seconds, followed by 600 rpm for 10 to 20 seconds so as to achieve a photochromic coating layer with a thickness of 40 µm.
The lens of which surface had been coated with the photochromic curable composition (photochromic coating layer) was irradiated with light for 90 seconds in a nitrogen gas atmosphere using a metal halide lamp with an output of 200 mW/cm^2 to cure the coating. The resultant was then further heated at 110°C for 1 hour to produce a photochromic laminate with a photochromic layer.
Photochromic laminates were produced using the photochromic compounds obtained in Examples 2 to 20 in the same manner as in Example 21.
Photochromic laminates were obtained using photochromic compounds represented by Formulae (A) to (D) below in the same manner as in Example 21. [drawing 89] [drawing 90] [drawing 91] [drawing 92] [drawing 93]
as §1, with “Residual ratio (A96/A0 x 100): The resulting photochromic plastic lens was subjected to accelerated degradation for 96 hours using a xenon weather meter X25 manufactured by Suga Test Instruments Co., Ltd. Color developing densities were then evaluated before and after a test, and a color developing density before the test (A0) and a color developing density after the test (A96) were measured. A ratio (A96/A0) was determined as a residual ratio and was used as an index of color development durability. The higher the residual ratio is, the more durable the color development is.” left out

[3] = Solubility of photochromic compound in polymerizable compounds; set-up: key: 1: No haze is seen when checked under transmission of light, and the sample is completely dissolved.; 2: A very thin haze is seen to the extent that it can be seen under transmission of light.; 3: A thin haze that can be seen under transmission of light is seen.; 4: A haze can be seen even without transmission of light; settings: 35 µmol/g in radical polymerizable compound composition of Example 21, 65 to 70°C; for Dissolution for 15 min / Dissolution for 30 min / Dissolution for 45 min: stirring and ultrasonic irradiation; for Dissolution for 1 hour: head reads 60 min in Tables 8 to 14
Description: The photochromic compounds according to Examples and Comparative examples shown in Table 5 were evaluated for solubility in polymerizable compounds.
Specifically, a sample was prepared by adding each of the photochromic compounds to the composition, which consisted of a radical polymerizable compound, among the curable compositions used in Example 21.
Note that, this test was performed using "YOKAI-KUN USS-1" manufactured by NIHONSEIKI KAISHA LTD. under the following conditions: • Dissolution temperature: 65 to 70°C • Stirring condition: Stirring dial of 5. Ultrasonic irradiation condition: Irradiation interval of 3 sec.
Dissolution was checked every 15 minutes up to 1 hour later, the sample was visually checked by transmitting light through the sample, and a degree of dissolution was evaluated according to the following four evaluation criteria.
• 1: No haze is seen when checked under transmission of light, and the sample is completely dissolved. • 2: A very thin haze is seen to the extent that it can be seen under transmission of light. • 3: A thin haze that can be seen under transmission of light is seen. • 4: A haze can be seen even without transmission of light.
A shorter time required for the evaluation result to be 1 means higher solubility.

SMILES | Residual ratio ([1]; A96/A0 x 100 after 96 hours accelerated degradation, xenon weather meter X25) | Color developing density at 23°C ([1]; absorbance difference after 240 seconds irradiation at the maximum absorption wavelength of the same line) | Residual ratio [2] | Dissolution for 15 min [3] | Dissolution for 30 min [3] | Dissolution for 45 min [3] | Dissolution for 1 hour [3] | Color fading half-life at 23°C [2] [min] | Color developing density at 23°C [2]
CCCC1(CC)c2cc(C)ccc2-c2c1c1c(c3cc(C)c(-c4ccc(OC)cc4)cc23)OC(c2ccc(OC)cc2)(c2ccc(N(c3ccccc3)c3ccccc3)cc2)C=C1 (stereo not drawn) [Formula (12-2)] | 66% and 65% | 0.64 - and 1.23 - | – | – | – | – | – | – | –
CCCCC1(CC)c2cc(OC)ccc2-c2c1c1c(c3cc(OC)c(Sc4c(C)cccc4C)cc23)OC(c2ccc(OC)cc2)(c2ccc(N3CCOCC3)cc2)C=C1 (stereo not drawn) [Formula (77-1)] | – | – | 67% | 3 | 3 | 1 | 1 | – | –
CCC1(C)c2cc(OC)ccc2-c2c1c1c(c3cc(OC)c(Sc4c(C)cccc4C)cc23)OC(c2ccc(OC)cc2)(c2ccc(N3CCOCC3)cc2)C=C1 (stereo not drawn) [Formula (74-2)] | – | – | 64% | 4 | 3 | 2 | 1 | 1.5 | –
CCCOc1ccc(C2(c3ccc(OC)cc3)C=Cc3c4c(c5cc(OC)c(OC)cc5c3O2)-c2ccc(N(C)c3ccccc3)cc2C4(CC)CCC)cc1 (stereo not drawn) [Formula (87-1)] | – | – | 64% | 3 | 2 | 1 | 1 | 2.65 | –
CCCC1(CC)c2ccccc2-c2c1c1c(c3cc(OC)c(-c4c(OC)cc(OC)cc4OC)cc23)OC(c2ccc(OC)cc2)(c2ccc(N(c3ccccc3)c3ccccc3)cc2)C=C1 (stereo not drawn) [Formula (78-2)] | – | – | 64% | 3 | 2 | 1 | 1 | – | –
CCC1(OCCOCCO[Si](C)(C)CC[Si](O[Si](C)(C)C)(O[Si](C)(C)C)O[Si](C)(C)C)c2ccccc2-c2c1c1c(c3cc(OC)c(N4CCOCC4)cc23)OC(c2ccc(OC)cc2)(c2ccc(OC)cc2)C=C1 (stereo not drawn) [Formula (C), reference compound] | – | – | 34% and 36% | 2 | 1 | 1 | 1 | – | 1.27 - and 0.70 -
CCCC1(CC)c2cc(C)ccc2-c2c1c1c(c3cc(OC)c(-c4ccc(N5CCOCC5)cc4)cc23)OC(c2ccc(OC)cc2)(c2ccc(N3CCOCC3)cc2)C=C1 (stereo not drawn) [Formula (79-2)] | – | – | – | 3 | 2 | 1 | 1 | 1.3 | –
COc1ccc(C2(c3ccc(OC)cc3)C=Cc3c4c(c5cc(N6CCOCC6)c(OC)cc5c3O2)-c2ccccc2C42CCCCCCC2)cc1 [Formula (D), reference compound] | – | – | 51% and 53% | 4 | 3 | 2 | 1 | 3.13 | 1.61 - and 0.89 -

Now from value to compound, other results behind:

Residual ratio ([1]; A96/A0 x 100 after 96 hours accelerated degradation, xenon weather meter X25) | Color developing density at 23°C ([1]; absorbance difference after 240 seconds irradiation at the maximum absorption wavelength of the same line) | Residual ratio [2] | Dissolution for 15 min [3] | Dissolution for 30 min [3] | Dissolution for 45 min [3] | Dissolution for 1 hour [3] | Color fading half-life at 23°C [2] [min] | SMILES | Color developing density at 23°C [2]
– | – | 48% and 44% | 3 | 2 | 1 | 1 | – | CCCCC1(C(C)CC)c2ccccc2-c2c1c1c(c3cc(OC)c(N4CCOCC4)cc23)OC(c2ccc(OC)cc2)(c2ccc(OC)cc2)C=C1 (stereo not drawn) [Formula (20-1)] | –
– | – | 57% | 4 | 3 | 1 | 1 | 1.25 | CCCC1(CC)c2cc(OC)ccc2-c2c1c1c(c3cc(OC)ccc23)OC(c2ccc(OC)cc2)(c2ccc(N3CCOCC3)cc2)C=C1 (stereo not drawn) [Formula (91-1)] | –
– | – | 62% | 3 | 3 | 2 | 1 | – | CCCCC1(C)c2cc(N(C)c3ccccc3)ccc2-c2c1c1c(c3cc(OC)c(OC)cc23)OC(c2ccc(OC)cc2)(c2ccc(OCCC)cc2)C=C1 (stereo not drawn) [Formula (73-2)] | –
– | – | 64% | 3 | 2 | 1 | 1 | – | CCCCCCC1(C)c2cc(OC(F)(F)F)ccc2-c2c1c1c(c3cc(OC)ccc23)OC(c2ccc(OC)cc2)(c2ccc(OC)cc2)C=C1 (stereo not drawn) [Formula (90-1)] | –
